Test results from patent publication US11793822B2, “Uses of Pulsatilla Chinensis extract in preparing drug for treating viral and/or bacterial diseases” (SICHUAN INLU WEITE PHARMACEUTICAL TECHNOLOGY CO., LTD., priority 2018, dated 2023).

Experiments:
[1] = tested on: persistent clinical mastitis; assay: Treatment of persistent clinical mastitis (Test Example 3); format: in vivo, cows; settings: 60 mL intramuscular injection once a day, after 3 administrations
Method: Pulsatilla Saponin B4 injection prepared by the preparation method of Example 3 at a concentration of 50 mg/mL;
The test selected 8 existing cows suffering from clinical mastitis in the dairy farm of Shijiazhuang Tianquan Dairy Cows Co., Ltd. These 8 cows have been treated for about a month but have not been cured (2 of them were close to dry, i.e., almost no milk was produced). These 8 cows have been treated by farm veterinarians, the treatment drugs and methods include udder infusing Cefquinome Sulfate Intramammary Infusion, intravenous injecting cephalosporins injection, and gavage with Gongying San ( ? ), etc.
To study the effect of Pulsatilla Saponin B4 injection on persistent clinical mastitis and the effect of Pulsatilla Saponin B4 injection on latent mastitis.
In the test, the Pulsatilla Saponin B4 injection prepared by the preparation method of Example 3 was used to treat 6 cows with persistent clinical mastitis and 2 cows with persistent clinical mastitis and close to dry. No matter how many udder areas were inflamed, intramuscular injection (60 mL) was taken once a day.

[2] = design: species or system dairy cows; settings: in vivo
Text: In addition, during the treatment of dairy cow mastitis, randomly selected the tested Pulsatilla Saponin B4 injection and entrusted the Sichuan Provincial Veterinary Drug Inspection Institute to conduct more than 200 antibiotic tests, and no antibiotic component was detected. […] Pulsatilla Saponin B4 has little effect on the immunoglobulin and inflammatory factors in the cow milk, thus can ensure the stability of the milk composition. In addition, since there is no residue, it will not affect the quality of fresh milk in dairy farms.

C=C(C)C1CC[C@]2(C(=O)O[C@@H]3O[C@H](CO[C@@H]4O[C@H](CO)[C@@H](O[C@@H]5O[C@@H](C)[C@H](O)[C@@H](O)[C@H]5O)[C@H](O)[C@H]4O)[C@@H](O)[C@H](O)C3O)CC[C@]3(C)[C@H](CC[C@@H]4[C@@]5(C)CC[C@H](O[C@@H]6OC[C@H](O)[C@H](O)[C@H]6O[C@@H]6O[C@@H](C)[C@H](O)[C@@H](O)[C@H]6O)C(C)(CO)[C@@H]5CC[C@]43C)[C@H]12 (stereo partly drawn) [Pulsatilla Saponin B4]
Treatment result of cows with persistent clinical mastitis close to dry ([1]; 2 cows close to dry): not effective
Treatment result of cows with persistent clinical mastitis ([1]; 6 cows treated about a month but not cured): four cows were cured, one cow improved significantly, and one cow showed no significant effect
Effect on the immunoglobulin and inflammatory factors in the cow milk [2]: little effect
